One may read the MIC as the lowest concentration found to suppress growth. A word on the viability: it is a read-out of living cells in per cent, often relative to untreated cells. A high value points to better survival.

Values after ≈ are worked out from the molar mass of the structure shown. Non-standard residues stand in square brackets, D forms with d. Residues, ends and D or L forms follow the SMILES beside them. N(5-aminopentyl)Gly = NCCCCCNCC(=O)O; Gly(N-2-aminoethyl) = NCCNCC(=O)O; Gly(N(CH2)3NH2) = NCCCNCC(=O)O; hLys = NCCCCC[C@H](N)C(=O)O; Nphe = O=C(O)CNCc1ccccc1; Nlys = NCCCCNCC(=O)O

The test system of data set [1] is E. coli ATCC 25922. It counts as cell-based. Particulars: ATCC 25922, 20 h. On the procedure: (§1) MIC values were evaluated by using the modified Hancock lab protocol in non-binding polystyrene microtitre plates, with bacterial suspensions of ∼2 × 10^5 CFU/mL in Mueller-Hinton broth (Difco, Sparks MD, USA), with Mg^2+ and Ca^2+ concentrations of 4 mg/L each. The compounds were dissolved in H2O and diluted in 0.01% acetic acid, 0.2% BSA (final concentration). Aliquots of 11 µL of 10 × test compounds were then transferred to the appropriate wells with bacterial suspensions. For preparation and transfer of the solutions of the compounds, low-binding sterile tubes and tips (Axygen, Union City CA, USA) were used. After 20 h incubation of covered plates at 35 °C (±2 °C) with circular shaking at 220 rpm, the MICs were read. The antibacterial activity of peptidomimetics was tested against E. coli ATCC 25922, K. pneumoniae ATCC 13883, P. aeruginosa ATCC 27853, P. aeruginosa PAO1, A. baumannii ATCC 19606, S. aureus ATCC 29213, and E. faecalis ATCC 29212.

Data set [2] deals with K. pneumoniae ATCC 13883. It counts as cell-based. Particulars: ATCC 13883, 20 h. On the procedure: as §1
For data set [3], the system named is S. aureus ATCC 29213. It counts as cell-based. Particulars: ATCC 29213, 20 h. The protocol: as §1
Data set [4] concerns A. baumannii ATCC 19606. Type of data set: cell-based. Particulars: ATCC 19606, 20 h. On the procedure: as §1
Data set [5] relates to P. aeruginosa PAO1. It counts as cell-based. Particulars: PAO1, 20 h. On the procedure:
as §1

Data set [6] concerns P. aeruginosa ATCC 27853. It counts as cell-based. Particulars: ATCC 27853, 20 h. On the procedure:
as §1

The test system of data set [7] is E. faecalis ATCC 29212. Type of data set: cell-based. Particulars: ATCC 29212, 20 h. The protocol:
as §1

Data set [8] relates to HepG2 cell line ATCC HB-8065. Briefly: in vitro. It counts as cell-based. Particulars: 48 h. The protocol:
(§2) Side effects affecting cell viability were estimated on the HepG2 cell line ATCC HB-8065. In brief, HepG2 cells were seeded in flat-bottomed 96-well plates at a concentration of 5000 cells per well. At 80−90% confluency, the cells were incubated for 24 h in a humidified incubator (5% CO2, 37 °C). The medium was removed, and the cells were incubated for 48 h in a humidified incubator (5% CO2, 37 °C) with compounds in two-fold serial dilutions. An MTT assay was then performed as previously described. In brief, after incubation with the test compounds, the culture medium was removed and fresh medium with 0.2 mg/mL MTT was added in each well of the plate. After incubation (3 h, 37 °C, 5% CO2), the medium with MTT was removed, and 200 μL dimethyl sulfoxide were added at once to each sample. Absorbance of MTT was measured using spectrophotometer TECAN Infinite M1000 at 540 nm. The relative viability was calculated by using the formula: ODtreated cells × 100/ODcontrol cells. The IC50 values are calculated by using the program Graph Pad Prism® 5.0. For all compounds, the test range was 10–1280 μg/mL.

The nature of data set [9]: in vitro. It counts as cell-based. Particulars: human. On the procedure:
as §2

Data set [10] can be described thus: in vitro. It counts as cell-based. Particulars: human, Hemolytic Activity (percentage hemolysis). On the procedure:
The lysis of human red blood cells was measured as previously described, with modifications. In brief, freshly drawn human red blood cells (hRBCs) were washed three times with PBS buffer and centrifuged two times for 5 min at 2500 rpm. A two-fold serial dilution of peptidomimetics in PBS buffer was added to each well in a sterile polypropylene V-bottom 96-well plate to the total volume of 75 μL. A 0.5% v/v hRBC suspension (75 μL in PBS buffer) was added to each well to reach a final volume of 150 μL in each well. The plate was incubated (37 °C) for 60 min, and then the cells were subsequently pelleted by centrifugation at 1000 rpm for 5 min. The supernatants (50 μL) were transferred to clear, flat-bottomed plastic 96-well plates. The concentration of hemoglobin was detected by measuring the OD at 405 nm. The OD of cells incubated with 0.1% SDS defined 100% hemolysis, while the OD of cells incubated with PBS buffer defined 0% hemolysis. The concentrations tested were 200, 400, and 800 μg/mL (only average values for the highest concentration are stated in Table 2).

A short description of data set [11]: Relative hydrophobicity by RP-HPLC (% MeCN at peak elution). It counts as physicochemical. Particulars: RP-HPLC gradient 0 → 60% B during 10 min; % MeCN at peak elution calculated from retention time. On the procedure:
The relative hydrophobicity of each peptidomimetic was measured by reverse-phase high-performance liquid chromatography (RP-HPLC). Typically, the RP-HPLC retention time (or percentage acetonitrile at peak elution) constitutes the preferred measure that allows for comparison of relative hydrophobicity, while log P values of polycationic peptides or peptidomimetics normally are considered unsuitable due to the extreme hydrophilic nature of such compounds [11, 45, 57, 58, 59, 60]. […] For both subgroups III (with cationic amino acid residues and the peptoid analogue of Phe, NPhe, i.e., 9–12) and IV (with cationic amino acid residues and the peptoid analogue of hPhe, NhPhe, i.e., 13–16) only minor differences in hydrophobicity were seen. These observations infer that, when the cationic residues are of a peptoid nature, the side-chain length of these has a […] influence on the hydrophobicity. […] Thus, introduction of additional six methylene groups results, as expected, in increased hydrophobicity.
Starting materials and solvents were purchased from commercial suppliers (Iris Biotech, Markredwitz, Germany; Fluorochem, Hadfield, United Kingdom; and Merck, Darmstadt, Germany) and used without further purification. Water used for analytical and preparative high-performance liquid chromatography (HPLC) was filtered through a 0.22-μm Millipore membrane filter. Purity and retention time of each peptidomimetic were determined by analytical UHPLC by using a Phenomenex Luna C18(2) HST column (100 mm × 3 mm; particle size: 2.5 μm; pore size: 100 Å) on a Shimadzu Prominence and Shimadzu Nexera system using an aqueous acetonitrile (MeCN) gradient with 0.1% trifluoroacetic acid (TFA) added (eluent A: 5:95 MeCN–H2O + 0.1% TFA, eluent B: 95:5 MeCN–H2O + 0.1% TFA); a flow rate of 0.5 mL/min was used. For elution of peptidomimetics, a linear gradient of 0% to 60% B during 10 min was used with UV detection at λ = 220 nm. […] For each peptidomimetic, the percentage of MeCN at peak elution was calculated from the retention time by using the following formula:(1) %MeCN = 0.95 (0.6Rt/10 min.) + 0.05 (1−0.6Rt/10 min.).

For the molecule `NCCNCC(=O)N[C@@H](Cc1ccccc1)C(=O)N(CCN)CC(=O)N[C@@H](Cc1ccccc1)C(=O)N(CCN)CC(=O)N[C@@H](Cc1ccccc1)C(=O)N(CCN)CC(=O)N[C@@H](Cc1ccccc1)C(=O)N(CCN)CC(=O)N[C@@H](Cc1ccccc1)C(=O)N(CCN)CC(=O)N[C@@H](Cc1ccccc1)C(N)=O` [Peptidomimetic 1] (H-[Gly(N-2-aminoethyl)]F[Gly(N-2-aminoethyl)]F[Gly(N-2-aminoethyl)]F[Gly(N-2-aminoethyl)]F[Gly(N-2-aminoethyl)]F[Gly(N-2-aminoethyl)]F-NH2), the MIC in data set [1] was 4 to 8 µg/mL; in [2], 64 µg/mL (≈ 42.6 µM); in data set [3] it was >64 µg/mL; in [4], >64 µg/mL; in [5] it was >64 µg/mL; in [6], 64 µg/mL (≈ 42.6 µM). Besides, the MIC in [7] is >64 µg/mL. In addition, the “IC50 for inhibiting growth of HepG2 cells” value (shortened to “IC50 for inhibiting growth”) in data set [8] is reported as 1280 µg/mL. Further, the viability at 48 h, 1280 µg/mL in data set [9] is 49%. In addition, the hemolysis at 60 min, 800 µg/mL in data set [10] was found to be 7%. Besides, the “Hydrophobicity (% MeCN at elution)” value in data set [11] was 37.5%.
In the case of `NCCCNCC(=O)N[C@@H](Cc1ccccc1)C(=O)N(CCCN)CC(=O)N[C@@H](Cc1ccccc1)C(=O)N(CCCN)CC(=O)N[C@@H](Cc1ccccc1)C(=O)N(CCCN)CC(=O)N[C@@H](Cc1ccccc1)C(=O)N(CCCN)CC(=O)N[C@@H](Cc1ccccc1)C(=O)N(CCCN)CC(=O)N[C@@H](Cc1ccccc1)C(N)=O` [Peptidomimetic 2] (H-[Gly(N(CH2)3NH2)]F[Gly(N(CH2)3NH2)]F[Gly(N(CH2)3NH2)]F[Gly(N(CH2)3NH2)]F[Gly(N(CH2)3NH2)]F[Gly(N(CH2)3NH2)]F-NH2), the MIC in [1] is 8 to 16 µg/mL; in [2] it was 64 µg/mL (≈ 40.4 µM); in data set [3], >64 µg/mL; in data set [4] it was >64 µg/mL; in data set [5] it was >64 µg/mL; in [6], >64 µg/mL. For the same molecule, the MIC in [7] is given as >64 µg/mL. For the same molecule, in [8], the “IC50 for inhibiting growth” value is on record as >1280 µg/mL. The same molecule came in with a viability at 48 h, 1280 µg/mL in data set [9] of 62%. The hemolysis at 60 min, 800 µg/mL in data set [10] was found to be 5%. For the same molecule, the “Hydrophobicity (% MeCN at elution)” value in data set [11] is given as 35.7%.
In the case of `NCCCCNCC(=O)N[C@@H](Cc1ccccc1)C(=O)N(CCCCN)CC(=O)N[C@@H](Cc1ccccc1)C(=O)N(CCCCN)CC(=O)N[C@@H](Cc1ccccc1)C(=O)N(CCCCN)CC(=O)N[C@@H](Cc1ccccc1)C(=O)N(CCCCN)CC(=O)N[C@@H](Cc1ccccc1)C(=O)N(CCCCN)CC(=O)N[C@@H](Cc1ccccc1)C(N)=O` [Peptidomimetic 3] (H-[Nlys]F[Nlys]F[Nlys]F[Nlys]F[Nlys]F[Nlys]F-NH2), the MIC in [1] was 8 to 16 µg/mL; in data set [2] it was 32 µg/mL (≈ 19.2 µM); in data set [3] it was >64 µg/mL; in data set [4] it was >64 µg/mL; in data set [5], >64 µg/mL; in data set [6], >64 µg/mL. The MIC in data set [7] is listed as >64 µg/mL. The “IC50 for inhibiting growth” value in [8] worked out at 1280 µg/mL. In data set [9], this molecule gave a viability at 48 h, 1280 µg/mL of 52%. In [10], this molecule returned a hemolysis at 60 min, 800 µg/mL of 8%. Moreover, the “Hydrophobicity (% MeCN at elution)” value in [11] is reported as 35.6%.
For the molecule `NCCCCCNCC(=O)N[C@@H](Cc1ccccc1)C(=O)N(CCCCCN)CC(=O)N[C@@H](Cc1ccccc1)C(=O)N(CCCCCN)CC(=O)N[C@@H](Cc1ccccc1)C(=O)N(CCCCCN)CC(=O)N[C@@H](Cc1ccccc1)C(=O)N(CCCCCN)CC(=O)N[C@@H](Cc1ccccc1)C(=O)N(CCCCCN)CC(=O)N[C@@H](Cc1ccccc1)C(N)=O` [Peptidomimetic 4] (H-[N(5-aminopentyl)Gly]F[N(5-aminopentyl)Gly]F[N(5-aminopentyl)Gly]F[N(5-aminopentyl)Gly]F[N(5-aminopentyl)Gly]F[N(5-aminopentyl)Gly]F-NH2), the minimum inhibitory concentration (MIC) in data set [1] was 4 to 8 µg/mL; in data set [2], 64 µg/mL (≈ 36.5 µM); in data set [3], >64 µg/mL; in data set [4], 64 µg/mL (≈ 36.5 µM); in data set [5], >64 µg/mL; in data set [6], >64 µg/mL. In addition, the MIC in data set [7] is on record as >64 µg/mL. Moreover, the “IC50 for inhibiting growth” value in data set [8] came to 1280 µg/mL. The viability at 48 h, 1280 µg/mL in data set [9] worked out at 49%. The molecule also registered a hemolysis at 60 min, 800 µg/mL in data set [10] of 9%. Further, the “Hydrophobicity (% MeCN at elution)” value in data set [11] is 36.6%.
As for `NCCCCC[C@H](NC(=O)CN(Cc1ccccc1)C(=O)[C@H](CCCCCN)NC(=O)CN(Cc1ccccc1)C(=O)[C@H](CCCCCN)NC(=O)CN(Cc1ccccc1)C(=O)[C@H](CCCCCN)NC(=O)CN(Cc1ccccc1)C(=O)[C@H](CCCCCN)NC(=O)CN(Cc1ccccc1)C(=O)[C@@H](N)CCCCCN)C(=O)N(CC(N)=O)Cc1ccccc1` [Peptidomimetic 12] (H-[hLys][Nphe][hLys][Nphe][hLys][Nphe][hLys][Nphe][hLys][Nphe][hLys][Nphe]-NH2), the MIC in data set [1] is 2 µg/mL (≈ 1.14 µM); in data set [2] it was >64 µg/mL; in [3], >64 µg/mL; in data set [5], 64 µg/mL (≈ 36.5 µM); in [6], 64 µg/mL (≈ 36.5 µM); in [7], >64 µg/mL. Moreover, the “IC50 for inhibiting growth” value in data set [8] came to 1280 µg/mL. The viability at 48 h, 1280 µg/mL in data set [9] worked out at 47%. Moreover, the hemolysis at 60 min, 800 µg/mL in data set [10] turned out to be 9%. Further, the “Hydrophobicity (% MeCN at elution)” value in data set [11] is listed as 38.0%.
